From patent US7186743B2, “Substituted pyrazolyl compounds for the treatment of inflammation” (Pharmacia Corporation, priority 2001, dated 2007)
Where a name gives a salt, the structure may show the parent alone. Read-outs that look alike come from different tables or passages of the source.

Target: T1, IKK2 (Homo sapiens, UniProt O14920)
T1 construct: made in house; host or cells: insect cells (baculovirus, pFastBac; SF9)
T1 sequence (O14920 1-756): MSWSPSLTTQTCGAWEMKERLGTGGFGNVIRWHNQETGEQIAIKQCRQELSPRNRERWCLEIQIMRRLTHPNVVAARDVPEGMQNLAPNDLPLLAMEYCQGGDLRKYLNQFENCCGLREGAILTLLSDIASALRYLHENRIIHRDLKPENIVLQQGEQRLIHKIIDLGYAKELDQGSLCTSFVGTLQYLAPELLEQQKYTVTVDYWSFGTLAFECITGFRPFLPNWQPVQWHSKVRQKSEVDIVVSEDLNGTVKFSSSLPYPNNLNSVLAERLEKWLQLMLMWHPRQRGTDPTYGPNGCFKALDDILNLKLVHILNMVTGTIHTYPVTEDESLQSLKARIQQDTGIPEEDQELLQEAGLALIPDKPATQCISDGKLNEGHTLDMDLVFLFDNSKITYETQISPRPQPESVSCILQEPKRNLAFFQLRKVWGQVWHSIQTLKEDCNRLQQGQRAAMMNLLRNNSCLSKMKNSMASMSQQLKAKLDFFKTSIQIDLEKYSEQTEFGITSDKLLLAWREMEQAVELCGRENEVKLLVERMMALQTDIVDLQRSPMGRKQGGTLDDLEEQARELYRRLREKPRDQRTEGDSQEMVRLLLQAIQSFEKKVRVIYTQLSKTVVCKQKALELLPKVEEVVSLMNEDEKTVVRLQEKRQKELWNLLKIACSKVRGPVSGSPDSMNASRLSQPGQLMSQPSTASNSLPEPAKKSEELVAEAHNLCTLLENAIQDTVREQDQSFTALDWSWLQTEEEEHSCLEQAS
Assay: IKKβ Resin Enzyme Assay (IKK2 resin)
Type: biochemical
Source text: cDNAs of human IKK1 and IKK2 were amplified by reverse transcriptase-polymerase chain reaction from human placental RNA (Clonetech). hIKK1 was subcloned into pFastBac HTa (Life Technologies) and expressed as N-terminal His6-tagged fusion protein. The hIKK2 cDNA was amplified using a reverse oligonucleotide primer which incorporated the peptide sequence for a FLAG-epitope tag at the C-terminus of the IKK2 coding region ([…]). The hIKK2:FLAG cDNA was subcloned into the baculovirus vector pFastBac. The rhIKK2 ([…]) mutant was constructed in the same vector used for wild type rhIKK2 using a QuikChange™ mutagenesis kit (Stratagene). Viral stocks of each construct were used to infect insect cells grown in 40 L suspension culture. […] Cell lysates were stored at −80° C. until purification of the recombinant proteins was undertaken as described below.
A 10-liter culture of baculovirus-expressing IKK2 tagged with FLAG peptide was centrifuged and the cell pellet (MOI=0.1 and I=72 hrs) was re-suspended in buffer A. These cells were microfluidized, and centrifuged at 100,000×g for 45 min. Supernatant was passed over a G-25 column equilibrated with Buffer A. Protein peak was collected and incubated with anti-FLAG affinity resin on a rotator overnight in buffer B. The resin was washed in batch with 10–15 bed volumes of buffer C. Washed resin was poured into a column and rhIKK2 homodimer was eluted using 5 bed volumes of buffer B containing FLAG peptide. 5 mM DTT, 0.1% NP-40 and BSA (concentrated to 0.1% in final amount) was added to the eluted enzyme before concentrating in using an Amicon membrane with a molecular weight cut-off of 30 kDa. Enzyme was aliquoted and stored at −80° C.
IKKβ kinase activity was measured using a biotinylated IκBα peptide ([…]32-Gly-Leu-Asp-Ser36-Met-Lys-Asp-Glu-Glu) (American Peptide Co.). […] ATP (Amersham) (about 1×10^5 cpm), 1 μM ATP (Sigma), 1 mM DTT (Sigma), 2 mM MgCl2 (Sigma), 2 mM MnCl2 (Sigma), 10 mM NaF (Sigma), 25 mM Hepes (Sigma) buffer, pH 7.6 and 20 μl enzyme solution and 10 ul inhibitor in a final volume of 50 μl. After incubation at 25° C. for 30 min, 150 μl resin (Dowex anion-exchange resin AG1X8 200–400 mesh) in 900 mM formate, pH 3.0 was added to each well to stop the reaction. Resin was allowed to settle for one hour and 50 ul of supernatant was removed to a Micolite-2 flat bottom plate (Dynex). 150 μl of scintillation fluid (Microscint 40) (Packard) was added to each well. Incorporation of [γ-^33P] ATP was measured using a Top-Count NXT (Packard).

[1] = Table 14, read-out: IKK2 Resin IC50
[2] = Table 2, read-out: IKK Resin IC50
[3] = Table 4, read-out: IKK2 Resin IC50
[4] = Table 11, read-out: IKK2 Resin IC50
[5] = Table 10, read-out: IKK2 Resin IC50
[6] = Table 6, read-out: IKK2 Resin IC 50

Work on `CCCS(=O)(=O)c1ccc(-n2nc(C(N)=O)c3c2-c2cc(NC(=O)c4ccccc4Cl)ccc2CC3)cc1` [Example 400, 8-[(2-chlorobenzoyl)amino]-1-[4-(propylsulfonyl)phenyl]-4,5-dihydro-1H-benzo[g]indazole-3-carboxamide] yielded an IC50 (Table 18, read-out: IKK2 Resin IC50) of no more than 1000 nM.
In the case of `NC(=O)c1nn(-c2ccccc2)c2c1CCc1ccc(NC(=O)c3ccncc3Cl)cc1-2` [Example 331, 8-[(3-chloroisonicotinoyl)amino]-1-phenyl-4,5-dihydro-1H-benzo[g]indazole-3-carboxamide], the IC50 [1] is reported as no more than 1000 nM.
Work on `CS(=O)(=O)c1ccc(-n2nc(C(N)=O)c3c2-c2cc(NC(=O)c4cccc(N)c4Cl)ccc2CC3)cc1` [Example 116, 8-[(3-amino-2-chlorobenzoyl)amino]-1-[4-(methylsulfonyl)phenyl]-4,5-dihydro-1H-benzo[g]indazole-3-carboxamide] yielded an IC50 [2] of no more than 1000 nM.
For `CS(=O)(=O)c1ccc(-n2nc(C(N)=O)c3c2-c2cc(NC(=O)c4cccc(Cl)c4N)ccc2CC3)cc1` [Example 118, 8-[(2-amino-3-chlorobenzoyl)amino]-1-[4-(methylsulfonyl)phenyl]-4,5-dihydro-1H-benzo[g]indazole-3-carboxamide], the IC50 [2] was no more than 1000 nM.
Compound `CSc1ccc(Cl)c(C(=O)Nc2ccc3c(c2)-c2c(c(C(N)=O)nn2-c2ccc4c(c2)OCO4)CC3)c1` [Example 190, 1-(1,3-benzodioxol-5-yl)-8-{2-chloro-5-[2-(methylthio)benzoyl]amino}-4,5-dihydro-1H-benzo[g]indazole-3-carboxamide] has an IC50 [3] of no more than 1000 nM.
Compound `NC(=O)c1nn(-c2ccc3c(c2)OCO3)c2c1CCc1ccc(NC(=O)c3ccccc3Cl)cc1-2` [Example 165, 1-(1,3-benzodioxol-5-yl)-8-[(2-chlorobenzoyl)amino]-4,5-dihydro-1H-benzo[g]indazole-3-carboxamide] has an IC50 [3] of no more than 1000 nM.
Compound `CS(=O)(=O)c1ccc(-n2nc(C(N)=O)c3c2-c2cc(NC(=O)c4cc5c(cc4Cl)OCO5)ccc2CC3)cc1` [Example 125, 8-{[(6-chloro-1,3-benzodioxol-5-yl)carbonyl]amino}-1-[4-(methylsulfonyl)phenyl]-4,5-dihydro-1H-benzo[g]indazole-3-carboxamide] has an IC50 [2] of no more than 1000 nM.
Compound `NC(=O)c1nn(-c2ccc(CCC(=O)CO)cc2)c2c1CCc1ccc(NC(=O)c3ccccc3Cl)cc1-2` [Example 299, 8-[(2-chlorobenzoyl)amino]-1-[4-(4-hydroxy-3-oxobutyl)phenyl]-4,5-dihydro-1H-benzo[g]indazole-3-carboxamide] has an IC50 [4] of no more than 1000 nM.
With `NC(=O)c1nn(-c2ccc(O)cc2)c2c1CCc1ccc(NC(=O)c3cc(N)ccc3Cl)cc1-2` [Example 280, 8-[(5-amino-2-chlorobenzoyl)amino]-1-(4-hydroxyphenyl)-4,5-dihydro-1H-benzo[g]indazole-3-carboxamide] the IC50 [5] was no more than 1000 nM.
Work on `CS(=O)(=O)c1ccc(C(=O)Nc2ccc3c(c2)-c2c(c(C(N)=O)nn2-c2ccc4c(c2)OCO4)CC3)c(Cl)c1` [Example 163, 1-(1,3-benzodioxol-5-yl)-8-{[2-chloro-4-(methylsulfonyl)benzoyl]amino}-4,5-dihydro-1H-benzo[g]indazole-3-carboxamide] yielded an IC50 [3] of no more than 1000 nM.
`Cc1ccnc(Cl)c1C(=O)Nc1ccc2c(c1)-c1c(c(C(N)=O)nn1-c1cccc(O)c1)CC2` [Example 287, 8-{[(2-chloro-4-methylpyridin-3-yl)carbonyl]amino}-1-(3-hydroxyphenyl)-4,5-dihydro-1H-benzo[g]indazole-3-carboxamide] gave an IC50 [5] of no more than 1000 nM.
`CS(=O)(=O)/C=C/c1ccc(-n2nc(C(N)=O)c3c2-c2cc(NC(=O)c4ccccc4Cl)ccc2CC3)cc1` [Example 297, 8-[(2-chlorobenzoyl)amino]-1-{4-[(E)-2-(methylsulfonyl)ethenyl]phenyl}-4,5-dihydro-1H-benzo[g]indazole-3-carboxamide] showed an IC50 [4] of no more than 1000 nM.
In the case of `CS(=O)(=O)c1ccc(-n2nc(C(N)=O)c3c2-c2cc(NC(=O)c4ccccc4)ccc2CC3)cc1` [Example 140, 8-(benzoylamino)-1-[4-(methylsulfonyl)phenyl]-4,5-dihydro-1H-benzo[g]indazole-3-carboxamide], the IC50 (Table 3, read-out: IKK Resin IC50) is reported as no more than 1000 nM.
`NC(=O)c1nn(-c2ccc(F)cc2)c2c1CCc1ccc(NC(=O)c3ccc(C(F)(F)F)nc3Cl)cc1-2` [Example 234, 8-({[2-chloro-6-(trifluoromethyl)pyridin-3-yl]carbonyl}amino)-1-(4-fluorophenyl)-4,5-dihydro-1H-benzo[g]indazole-3-carboxamide] gave an IC50 [6] of no more than 1000 nM.
Work on `NC(=O)c1nn(-c2ccc(O)cc2)c2c1CCc1ccc(NC(=O)c3ccccc3Cl)cc1-2` [Example 261, 8-[(2-chlorobenzoyl)amino]-1-(4-hydroxyphenyl)-4,5-dihydro-1H-benzo[g]indazole-3-carboxamide] yielded an IC50 (Table 8, read-out: IKK2 Resin IC50) of no more than 1000 nM.
`NC(=O)c1nn(-c2ccc(F)cc2)c2c1CCc1ccc(NC(=O)c3ccncc3Cl)cc1-2` [Example 228, 8-[(3-chloroisonicotinoyl)amino]1-(4-fluorophenyl)-4,5-dihydro-1H-benzo[g]indazole-3-carboxamide hydrochloride] showed an IC50 [6] of no more than 1000 nM.
`NC(=O)c1nn(-c2ccc3c(c2)OCO3)c2c1CCc1ccc(NC(=O)c3ccc(N)cc3Cl)cc1-2` [Example 180, 8-[(4-amino-2-chlorobenzoyl)amino]-1-(1,3-benzodioxol-5-yl)-4,5-dihydro-1H-benzo[g]indazole-3-carboxamide] showed an IC50 [3] of no more than 1000 nM.
Work on `Cc1ccc(C(=O)Nc2ccc3c(c2)-c2c(c(C(N)=O)nn2-c2ccc4c(c2)OCO4)CC3)c(Cl)n1` [Example 167, 1-(1,3-benzodioxol-5-yl)-8-{[(2-chloro-6-methylpyridin-3-yl)carbonyl]amino}-4,5-dihydro-1H-benzo[g]indazole-3-carboxamide] yielded an IC50 [3] of no more than 1000 nM.
Compound `NC(=O)c1nn(-c2ccc3c(c2)OCO3)c2c1CCc1ccc(NC(=O)c3cc([N+](=O)[O-])ccc3Cl)cc1-2` [Example 173, 1-(1,3-benzodioxol-5-yl)-8-[(2-chloro-5-nitrobenzoyl)amino]-4,5-dihydro-1H-benzo[g]indazole-3-carboxamide] has an IC50 [3] of no more than 1000 nM.
`CC(=O)Nc1ccc(-n2nc(C(N)=O)c3c2-c2cc(NC(=O)c4ccccc4Cl)ccc2CC3)cc1` [Example 371, 1-[4-(acetylamino)phenyl]-8-[(2-chlorobenzoyl)amino]-4,5-dihydro-1H-benzo[g]indazole-3-carboxamide] was tested, and the IC50 (Table 15, read-out: IKK2 Resin IC50) was no more than 1000 nM.
Compound `CS(=O)(=O)c1ccc(-n2nc(C(N)=O)c3c2-c2cc(NC(=O)c4ccc(N)cc4Cl)ccc2CC3)cc1` [Example 114, 8-[(4-amino-2-chlorobenzoyl)amino]-1-[4-(methylsulfonyl)phenyl]-4,5-dihydro-1H-benzo[g]indazole-3-carboxamide] has an IC50 [2] of no more than 1000 nM.
For `NC(=O)c1nn(-c2ccccc2F)c2c1CCc1ccc(NC(=O)c3ccccc3Cl)cc1-2` [Example 341, 8-[(2-chlorobenzoyl)amino]-1-(2-fluorophenyl)-4,5-dihydro-1H-benzo[g]indazole-3-carboxamide], the IC50 [1] was no more than 1000 nM.
